# Article PMC12663368 (Nature Communications, 2025)
# System: Mpro-WT and Mpro-Δ23G 1:1 mixture
# Details: hamster, in vivo
smiles,measurement,value
CC(C)(C)[C@H](NC(=O)C(F)(F)F)C(=O)N1C[C@H]2[C@@H]([C@H]1C(=O)N[C@H](C#N)C[C@@H]1CCNC1=O)C2(C)C [nirmatrelvir],Mpro-WT dominance,> 97%
